# Test results from patent publication US20140322242A1, “MATERIALS AND METHODS FOR THE PREVENTION AND TREATMENT OF CANCER” (Icahn School of Medicine at Mount Sinai, priority 2010, published 2014).
# Columns and labels:
# healthy prostate = assay: Healthy (tumor-free) prostate: nerve density, epithelial cell proliferation, apoptosis, Chrm1 expression; type: in vivo, mouse; conditions: 6OHDA; TUNEL
# Procedure: (§1) Upon sacrifice, mouse prostate tissues were immersed in OCT medium (Tissue Teck®). Five-micrometer frozen sections were stained with hematoxylin-eosin (H&E). For immunofluorescence, unstained prostate sections were fixed with acetone or methanol. For staining of nerves, fixed sections were incubated in H2O2 to quench endogenous peroxidase and non-specific binding was blocked with goat serum in bovine serum albumin (BSA) solution and the avidin/biotin blocking kit (Vector Laboratories, Burlingame, Calif.). Sections were incubated with a rabbit anti-TH antibody (Millipore, Billerica, Mass.), or anti-VAChT antibody (Phoenix Pharmaceuticals, Inc., Burlingame, Calif.), or anti-NF-L antibody (Millipore), or anti-NF-H antibody (Abcam, Cambridge, Mass.) and then with a secondary biotinylated goat anti-rabbit antibody (Vector Laboratories). Signal was amplified using the Vectastain Elite ABC Kit (Vector Laboratories) and visualized using the Tyramide Signal Amplification kit for TRITC (PerkinElmer, Boston, Mass.).
# (§2) For proliferative cell quantification, sections were incubated with a rabbit polyclonal anti-Ki67 (Abcam) and then Alexafluor 568-conjugated goat anti-rabbit antibody (Molecular Probes, Carlsbad, Calif.).
# For apoptotic cell quantification, prostate sections were fixed with 4% paraformaldehyde (PFA) and stained with the Mebstain Apoptosis Kit according to manufacturer's recommendations (MBL International, Woburn, Mass.). Basement membranes were stained with a rat polyclonal anti-α2laminin antibody (Abcam) followed by Alexafluor647-conjugated goat anti-rat antibody (Molecular Probes).
# Gene expression levels were analyzed from RNA extracted, using the TRIzol solution (Invitrogen, Carlsbad, Calif.), from PC-3, DU145, LNCaP cell lines or prostates from Balb/c nu/nu mice by quantitative real-time PCR, as described previously (Mendez-Ferrer, Nature, 452:442-447 (2008)).
# PC-3luc cells [1] = assay: Xenogeneic orthotopic PC-3luc prostate tumor model in nude mice (bioluminescence, immunofluorescence); type: in vivo, Balb/c nu/nu mice; conditions: for distant metastases / carbachol-induced lymph node invasion: antagonist in combination with carbachol
# Procedure: The microenvironment of a developing tumor is important in cancer development and metastasis. A xenogeneic orthotopic model of prostate cancer was established to provide a minimally disruptive microenvironment for this cancer in live mice.
# In vivo and ex vivo bioluminescence imaging was performed and analyzed using an IVIS imaging system 200 series (Xenogen, Caliper Life Sciences, Hopkinton, Mass.). Bioluminescent signal was induced by i.p. injection of D-luciferin (150 mg/kg in PBS) 8 minutes prior to in vivo imaging. For ex vivo imaging, D-luciferin (300 mg/kg) was injected 7 minutes prior to necropsy. Organs of interest were immersed in a solution of D-luciferin at 150 mg/ml.
# as §1, §2
# (§3) Human tumors were induced by orthotopic surgical implantations of 1×10^5 PC-3luc cells into six- to eight-week-old Balb/c nu/nu mice. Ten days after cell injection (day 0), the animals were randomized into the different groups and received the appropriate drugs, as indicated. 6OHDA or vehicle was injected at day 0 (100 mg/kg) and day 2 (250 mg/kg), and human recombinant G-CSF treatment was begun on day 4 (Amgen, 250 μg/kg/day, every 12 hours, 8 divided doses, i.p., in 5% dextrose). A second cycle was administered eight weeks after graft and animals were sacrificed three weeks after the last injection of G-CSF (i.e., 11 weeks after graft). In other experiments, 2×10^5 PC-3luc cells were orthotopically injected into nu/nu Adrβ2^tm1Bkk/J+/+ Adrβ3^tm1Lowl/J+/+, nu/nu Adrβ2^tm1Bkk/J−/−, nu/nu Adrβ3^tm1Lowl/J−/− and nu/nu Adrβ2^tm1Bkk/J−/− Adrβ3^tm1Lowl/J−/−. In selected experiments, 2×10^6 LNCaP-luc cells were injected in nu/nu Adrβ2^tm1Bkk/J+/+ Adrβ3^tm1Lowl/J+/+ and nu/nu Adrβ2^tm1Bkk/J−/− Adrβ3^tm1Lowl/J−/− mice. For the transgenic model, one-, two- or five-month-old c-Myc mice were injected with 6OHDA or surgically sympathectomized according to protocols described above and sacrificed 30 days later.
# A second cycle was administered at week four and mice were sacrificed one week later (five weeks after graft). For cholinergic experiments using the nu/nu Chrm1^tm1Stl+/+ and nu/nu Chrm1^tm1Stl−/− animals, mice were sacrificed at week six post-graft. For the survival study, grafted mice were treated as described hereinabove from week 4, every two weeks for up to 25 weeks or until death. Disease progression was monitored by bioluminescence scanner. […] One week later, mice received a second round of treatment and were then sacrificed at month four.
# PC-3luc cells [2] = assay: PC-3luc cell proliferation / cytotoxicity in vitro (MTT); type: cell-based, human
# Procedure: A cell proliferation assay was performed on human PC-3 prostate tumor cells after 96 hours of treatment by G-CSF at three different concentrations by comparison with human leukemic cells (HL-60 and U937). Cell proliferation was quantified by a cell viability assay using MTT (3-[4,5-dimethylthiazole-2-yl]-2,5-diphenyltetrazolium bromide (Sigma). The percentage of viable cells was calculated by comparing the optical density (OD) of the treated samples with those incubated with vehicle. Methods were carried out as described by Magnon, et al., Cancer Res, 65, 4353-61 (2005); incorporated herein by reference in its entirety.
# [3] = system: prostate cancer in cMyc mice; assay: cMyc transgenic mouse model of prostate cancer (mPIN, invasive cancer zones); type: in vivo
# Procedure: To investigate further the activity of G-CSF on tumor development using a genetic mouse model, transgenic mice expressing human cMyc under the ARR2/probasin promoter expressed specifically in the prostate (hereafter cMyc mice) were evaluated. This transgenic model leads to the complete penetrance of mouse prostatic intraepithelial neoplasia (mPIN) from postnatal week 2, progressing to invasive adenocarcinomas between 3 to 6 months of age (FIG. 2m). […] The development of invasive cancer was associated with a broad infiltration of NF-L+ neo-fibers by comparison with control animals (FIG. 2o). Thus, the increased tumor/normal epithelial cell proliferation following G-CSF administration is associated with (i.e., is correlated to) the development of new nerve fibers in the primary tumor. Accordingly, a method of treating cancer in a subject such as a human patient or non-human animal (e.g., non-human mammal) comprises administering a prophylactically or therapeutically effective amount of an inhibitor of NF-L+ neo-fibers. In some embodiments, the method comprises administering a prophylactically or therapeutically effective amount of an inhibitor of G-CSF.
# as §3
# To ascertain the role of sympathetic innervation in tumor initiation using a genetic model, the effect of chemical or surgical sympathectomy on prostate cancer in cMyc mice was evaluated. For this study, transgenic cMyc mice expressing human c-Myc under the ARR2/probasin promoter expressed specifically in the prostate (AAR2/Pbsn-MYC) were used. This transgenic model leads to the complete penetrance of mouse prostatic intraepithelial neoplasia (mPIN) from postnatal week 2, progressing to invasive adenocarcinomas between 3 to 6 months of age (FIG. 6e). To this end, mice were chemically sympathectomized one month prior to histological analyses.
# Disease progression was monitored by bioluminescence scanner. […] Mice were sacrificed at week 10.
# [4] = Echocardiography cardiac function after carbachol; type: in vivo; conditions: carbachol four consecutive days; n = 4 mice
# Procedure: For imaging, animals were anesthetized with a mixture of O2/1.5% isoflurane and then positioned ventral side up on the platform of the imaging system. ECG signal and respiratory rate were captured through the electrode pads on the advanced physiological monitoring unit and transmitted to the Vevo system for monitoring. Cardiac examinations were performed in two dimensional images using the parasternal long axis (PLAX) view in B-Mode with a 1MS550D 40 MHz probe. Two cineloops (300 frames/cineloop) were recorded per animal and then analyzed on two diastoles and two systoles per animal. The endocardial stroke volume and endocardial diastolic volume were determined to calculate the ejection fraction.
# [5] = Intravital microscopy hemodynamic measurements after carbachol; type: in vivo, mice
# Procedure: Centerline red blood cell velocities were measured for 10 venules and 10 arterioles in two independent experiments. Wall shear rates (γ) were calculated based on Poiseuille's law for a Newtonian fluid, γ=2.12 (8Vmean)/Dv or Da, where Dv and Da are the venular or arterial diameters, the mean blood flow velocity (Vmean) was estimated as VRBC/1.6, and 2.12 is a median empirical mean, correction factor obtained from actual velocity profiles measured in microvessels in vivo. The blood flow rate was calculated from the formula: Vmean π D^2/4.
# [6] = one hour after carbachol injection, n = 10 vessels
smiles,measurement,setting,value
"NCCc1cc(O)c(O)cc1O [6OHDA, 6-hydroxydopamine]",apoptosis of epithelial cells in the healthy prostate,healthy prostate,triggered in vivo apoptosis
same,TH+ neural fibers expressing NF-L (basal neural layer underneath prostate epithelium),PC-3luc cells [1]; 6OHDA 100 and 250 mg/kg,specifically destroyed
same,NF-L and NF-H positive fibers (parasympathetic) surrounding epithelial cells,PC-3luc cells [1]; 6OHDA treatment,without affecting
same,metastases,PC-3luc cells [1]; 6OHDA-induced sympathectomy,did not yield any detectable metastases
same,development of the primary tumors,"PC-3luc cells [1]; 6OHDA-induced sympathectomy, bioluminescence, TUNEL",dramatically prevented
same,direct cytotoxicity on tumor cells in vitro,"PC-3luc cells [2]; 6OHDA, cultured PC-3luc cells",no direct cytotoxicity
same,percentage of mPIN,[3]; denervation at 1 month of age,significantly reduced
same,prevalence of mPIN and invasive cancer zones,[3]; sympathectomy two months or more after birth,not significantly altered
CN1CCN(CC(=O)N2c3ccccc3C(=O)Nc3cccnc32)CC1 [pirenzepine],distant metastases,PC-3luc cells [1],inhibited
same,carbachol-induced lymph node invasion,PC-3luc cells [1]; week 5,inhibited
same,carbachol-induced tumor cell proliferation (Ki67),PC-3luc cells [1]; pirenzepine with carbachol,specifically blocked
same,carbachol-induced malignancy progression,[3]; pirenzepine with carbachol,completely inhibited
CN1[C@@H]2C[C@@H](OC(=O)[C@H](CO)c3ccccc3)C[C@H]1[C@@H]1O[C@@H]12 [scopolamine],distant metastases,PC-3luc cells [1],inhibited
same,carbachol-induced lymph node invasion,PC-3luc cells [1]; week 5,inhibited
"C[N+](C)(C)CCOC(N)=O.[Cl-] [carbachol, carbamoylcholine chloride]",Ejection fraction,[4],65 ± 4%
same,"Endocardial volume, diastole",[4],34.4 ± 7.9 µL
same,"Endocardial volume, systole",[4],11.7 ± 3.0 µL
same,invasion of inguinal lymph nodes,"PC-3luc cells [1]; carbachol alone, week 5",significantly enhanced
same,proliferation of PC-3luc cells orthotopically implanted into the prostate (Ki67),PC-3luc cells [1]; carbachol injections,induced the proliferation
same,tumor cell dissemination to distant organs compared to the control group,"PC-3luc cells [1]; carbachol, ex vivo bioluminescence",about 6 fold
same,primary tumors (ex vivo bioluminescence),"PC-3luc cells [1]; carbachol, five weeks post-grafting",depopulated
same,proliferation of PC-3luc cells in vitro,PC-3luc cells [2]; carbachol,did not induce any proliferation
same,vascular hemodynamics,[5]; carbachol-treated mice,not altered
same,Arterioles Blood Flow rate,[5]; [6],1737 ± 148 nL/s
same,Arterioles Diameter,[5]; [6],38.1 ±0.8 μm
same,Arterioles RBC velocity,[5]; [6],2.47 ± 0.22 mm/sec
same,Arterioles Wall shear rate (g),[5]; [6],698 ± 69
same,Venules Blood Flow rate,[5]; [6],863 ± 128 nL/s
same,Venules Diameter,[5]; [6],33.7 ± 1.3 μm
same,Venules RBC velocity,[5]; [6],1.48 ± 0.19 mm/sec
same,Venules Wall shear rate (g),[5]; [6],469 ± 59
same,incidence of mPIN,[3]; carbachol into three-month-old mice,significantly increased
same,transition of neoplastic lesions to invasive carcinoma,"[3]; carbachol, four months of age",accelerated
